Our source for the GI50 and TGI values is PubChem BioAssay (NCI).

What all share (assay): growth of human tumour cells (NCI), 48 h
For experiment [1], the system named is SNB-75 CNS.
For experiment [2], the system named is SNB-19 CNS.
For experiment [3], the system named is KM12 colon.
Experiment [4] has as its system MALME-3M melanoma.
Experiment [5] concerns RPMI-8226 leukemia.
In experiment [6] the test system is MCF7 breast.
For experiment [7], the system named is SK-OV-3 ovarian.
Experiment [8] deals with COLO 205 colon.
For experiment [9], the system named is OVCAR-4 ovarian.
Experiment [10] relates to A498 renal.

Molecules are shown by their SMILES. Several values for one entry are separate records, joined by “and”; a condition that tells them apart may be missing. Equal entries are not always repeated.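 Test compounds were applied to cells in 96-well plates for 48 hours at 5 doses. GI50 is the concentration that inhibits growth by half. TGI: concentration producing complete growth inhibition.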

For `CC(C)(C)OC(=O)N1CCc2c(sc3ncnc(N/N=C/c4cccc5ccccc45)c23)C1`, the GI50 in [1] is 1.67 µM; in experiment [2], 5.05 µM; in experiment [3] it was 4.3 µM; in [4], 3.97 µM; in [5] it was 2.28 µM; in [6], 3.14 µM. Moreover, the GI50 in [7] was 4 µM; in experiment [8], 2.79 µM; in experiment [9] it was 3.79 µM; in [10], 2.3 µM. Further, the TGI was 8.2 µM in experiment [1]; > 100 µM in experiment [2]; 76.9 µM in experiment [3]; 36.3 µM in experiment [4]; 8.49 µM in experiment [5]; > 100 µM in experiment [6]. Besides, the TGI in [7] was > 100 µM; in experiment [8], 40.8 µM; in experiment [9], 80.6 µM; in experiment [10], 9.79 µM.

Turning to `CC1=CC(=Nc2ccc(N(CCCl)CCCl)cc2)C=C(C)C1=O`, the GI50 in experiment [1] was 1 µM; in experiment [2], 2.81 µM; in experiment [3], 2.64 µM; in experiment [4], 1.84 µM; in [5], 1.14 µM; in experiment [6] it was 0.413 µM. For the same compound, the GI50 is 3.21 µM in [7], 1.49 µM in experiment [8], 1.56 µM in [9] and 1.68 µM in experiment [10]. The TGI in [1] is 7.87 µM; in experiment [2], > 65.8 µM; in experiment [3], 11.3 µM; in experiment [4], 6.49 µM; in experiment [5] it was 9.29 µM; in experiment [6] it was 3.98 µM. Besides, the TGI came out at 23 µM in experiment [7], 4.67 µM in [8], 4.76 µM in experiment [9] and 4.13 µM in [10].

`O=c1[nH]ncc(Br)c1Br`: the GI50 in experiment [1] is 3.35 µM; in experiment [2], 5.32 µM; in [3] it was 2.71 µM; in experiment [4], 1.81 µM; in experiment [5] it was 1.91 µM; in experiment [6], 2 µM. The GI50 in [7] is 13.9 µM; in experiment [8], 1.91 µM; in experiment [9], 1.71 µM; in experiment [10] it was 11.8 µM. In addition, the TGI is 16 µM in experiment [1]; 18.9 µM in experiment [2]; 13.7 µM in experiment [3]; 3.71 µM in experiment [4]; 6.18 µM in experiment [5]; 11 µM in experiment [6]. The TGI was 26.8 µM in experiment [7], 3.32 µM in experiment [8], 3.08 µM in experiment [9] and 24 µM in [10].

In the case of `CC1(C)OC2[C@@H](CNC(=O)NC(=O)NC(=O)CI)O[C@@H](n3cnc4c(NC(=O)Nc5ccccc5)ncnc43)[C@H]2O1` (stereo not given in full), the GI50 in [1] was 6.62 µM; in experiment [2] it was 27.1 µM; in experiment [3], 15.8 µM; in experiment [4], 1.12 µM; in experiment [5], 7.82 µM; in [6] it was 6.17 µM. For the same compound, the GI50 is 22.2 µM in experiment [7], 6.44 µM in [8], 7.16 µM in [9] and 18 µM in experiment [10]. The TGI in experiment [1] was 13.3 µM; in experiment [2], > 50 µM; in [3], > 50 µM; in [4] it was 2.9 µM; in experiment [5] it was 23.3 µM; in experiment [6], 14.2 µM. In addition, the TGI was > 50 µM in experiment [7], 14.5 µM in [8], 21 µM in experiment [9] and > 50 µM in experiment [10].

Consider `CS(=O)(=O)c1ccc([C@H]2O[C@@H](CO)C[C@]2(O)c2ccc(S(C)(=O)=O)cc2)cc1`, for which the GI50 in experiment [1], in experiment [2], in experiment [3], in [4], in [5] and in experiment [6] was > 100 µM throughout. The GI50 in experiment [7], in experiment [8], in experiment [9] and in experiment [10] was > 100 µM in each case. Besides, the TGI in experiment [1], in experiment [2], in [3], in experiment [4], in [5] and in experiment [6] was > 100 µM throughout. The TGI in experiment [7], in experiment [8], in [9] and in [10] was > 100 µM in each case.

As to `CC[C@@H]1C(=O)N(C)c2cnc(Nc3ccc(C(=O)NC4CCN(C)CC4)cc3OC)nc2N1C1CCCC1`, the GI50 in experiment [1] is 0.00411 µM and < 0.0112 µM; in experiment [2] it was 0.0058 µM and < 0.01 µM; in [3], 0.00346 µM and < 0.01 µM; in experiment [4], 1.12 µM and 1.37 µM; in experiment [5], 0.0198 µM and 0.0395 µM; in [6], 0.00331 µM and < 0.01 µM. The GI50 in experiment [7] is 0.00746 µM and < 0.01 µM; in [8] it was 0.00326 µM and < 0.01 µM; in [9], 0.303 µM and 0.163 µM; in [10], 0.0245 µM and 0.0246 µM. In addition, the TGI was 0.233 µM and 0.17 µM in experiment [1]; > 10 µM and 20.3 µM in [2]; > 10 µM and 5.65 µM in experiment [3]; 2.57 µM and 3.39 µM in experiment [4]; 1.69 µM and 1.91 µM in experiment [5]; > 4.96 µM and 5.55 µM in [6]. Moreover, the TGI was 0.593 µM and 0.128 µM in [7]; 0.111 µM in [8]; 9.87 µM and 4.4 µM in experiment [9]; 0.146 µM and 0.368 µM in experiment [10].

As for `O=C1CCCCN1CCCCC#Cc1ccccc1C#Cc1ccc([N+](=O)[O-])cc1`, the GI50 in [1] was 2.21 µM; in experiment [2], 6.57 µM; in experiment [3], 3.78 µM; in experiment [4], 37.2 µM; in [5] it was 0.408 µM; in [6], 1.38 µM. Besides, the GI50 is 1.57 µM in [7], 2.75 µM in [8], 4.38 µM in experiment [9] and 4.01 µM in experiment [10]. Besides, the TGI was 28.9 µM in experiment [1]; 19.4 µM in [2]; 15.7 µM in experiment [3]; > 100 µM in experiment [4]; 3.39 µM in experiment [5]; 3.65 µM in experiment [6]. Further, the TGI turned out to be 6.47 µM in [7], 7.17 µM in [8], 22.5 µM in experiment [9] and 25 µM in experiment [10].

For the compound `COc1cc([N+](=O)[O-])cc2c3c(n(C)c12)[C@@]1(C)CCC2c4ccc(OCc5ccccc5)cc4CCC2C1C3` (stereo not given in full), the GI50 in experiment [1] is 23.9 µM; in experiment [2] it was 46.5 µM; in [3] it was > 100 µM; in [4], > 100 µM; in experiment [5], 81.8 µM; in [6], > 100 µM. Further, the GI50 in experiment [7] was 54.5 µM; in experiment [8] it was 29.3 µM; in experiment [9], 61.6 µM; in experiment [10], 35.6 µM. The TGI in experiment [1] was 63.9 µM; in experiment [2], > 100 µM; in experiment [3], > 100 µM; in [4], > 100 µM; in [5] it was > 100 µM; in [6] it was > 100 µM. For the same compound, the TGI in experiment [7], in [8], in experiment [9] and in experiment [10] was > 100 µM in each case.
